{"source": "patent US20260345480A1", "about": "“PHARMACEUTICAL DOSAGE FORMS FOR PULSATILE RELEASE” (CHIESI FARMACEUTICI S.P.A., priority 2023, published 2026)", "origin": "cited, not measured here", "tested_on": "animals", "conditions": "continuous infusion for periods longer than 24 hours", "data": [{"compound": "Cc1c(O)c(=O)ccn1C", "note": "[deferiprone]", "values": [{"measurement": "toxicity on continuous infusion (in words)", "value": "potential toxicity of deferiprone observed in animals undergoing continuous infusion for periods longer than 24 hours"}]}]}
